# Measurements: US12655106B2 (Eikonizo Therapeutics, Inc., priority 2021, dated 2026)
# What was measured:
# Full length Human HDAC6 = target: T1, Full length Human HDAC6 (Homo sapiens, UniProt Q9UBN7); experiment: Caliper endpoint assay for HDAC enzymatic activity (HDAC6); format: biochemical; conditions: for IC50: in vitro enzymatic, Caliper endpoint assay, 30 min pre-incubation, 1 μM substrate peptide; for Selectivity (6 v 8): ratio of HDAC8 IC50/HDAC6 IC50
# T1 construct: Full length Human HDAC6; FLAG (C); host or cells: baculovirus expression system
# T1 sequence (Q9UBN7 1-1215): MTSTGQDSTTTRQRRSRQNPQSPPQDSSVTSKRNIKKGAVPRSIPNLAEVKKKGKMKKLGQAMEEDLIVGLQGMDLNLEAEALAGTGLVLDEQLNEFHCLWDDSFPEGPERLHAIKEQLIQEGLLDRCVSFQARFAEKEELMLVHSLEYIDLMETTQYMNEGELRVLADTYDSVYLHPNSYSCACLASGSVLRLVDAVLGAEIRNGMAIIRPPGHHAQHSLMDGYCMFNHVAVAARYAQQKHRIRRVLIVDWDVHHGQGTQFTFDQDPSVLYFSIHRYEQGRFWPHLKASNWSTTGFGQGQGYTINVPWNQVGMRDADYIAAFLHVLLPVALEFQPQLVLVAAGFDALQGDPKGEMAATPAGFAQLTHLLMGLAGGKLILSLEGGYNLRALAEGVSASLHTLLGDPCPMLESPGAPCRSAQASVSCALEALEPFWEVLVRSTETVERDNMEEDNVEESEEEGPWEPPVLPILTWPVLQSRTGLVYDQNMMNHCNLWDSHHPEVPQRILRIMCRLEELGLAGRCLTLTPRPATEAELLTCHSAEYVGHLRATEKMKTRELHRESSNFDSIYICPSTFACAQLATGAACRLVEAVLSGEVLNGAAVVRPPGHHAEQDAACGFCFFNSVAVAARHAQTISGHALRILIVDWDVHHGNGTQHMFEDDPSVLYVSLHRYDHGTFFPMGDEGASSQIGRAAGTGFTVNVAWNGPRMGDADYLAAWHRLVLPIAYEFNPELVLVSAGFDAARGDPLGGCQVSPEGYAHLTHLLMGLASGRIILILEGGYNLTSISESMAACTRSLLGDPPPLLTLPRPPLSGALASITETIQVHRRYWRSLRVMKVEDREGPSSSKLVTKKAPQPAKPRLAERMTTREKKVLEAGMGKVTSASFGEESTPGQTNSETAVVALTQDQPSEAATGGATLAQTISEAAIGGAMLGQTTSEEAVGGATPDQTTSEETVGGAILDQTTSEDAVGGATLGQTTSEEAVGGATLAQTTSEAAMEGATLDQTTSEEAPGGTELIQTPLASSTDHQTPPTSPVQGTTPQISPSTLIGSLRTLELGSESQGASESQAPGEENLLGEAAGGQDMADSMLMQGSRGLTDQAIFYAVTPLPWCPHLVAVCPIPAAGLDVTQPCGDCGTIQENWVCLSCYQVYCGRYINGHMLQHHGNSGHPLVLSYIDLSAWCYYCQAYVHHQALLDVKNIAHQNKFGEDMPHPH
# Full length Human HDAC8 = target: T2, Full length Human HDAC8 (Homo sapiens, UniProt Q9BY41); experiment: Caliper endpoint assay for HDAC enzymatic activity (HDAC8); format: biochemical; conditions: in vitro enzymatic, 30 min pre-incubation, 1 μM substrate peptide
# T2 construct: Full length Human HDAC8; HIS (N); host or cells: baculovirus expression system
# T2 sequence (Q9BY41 1-377): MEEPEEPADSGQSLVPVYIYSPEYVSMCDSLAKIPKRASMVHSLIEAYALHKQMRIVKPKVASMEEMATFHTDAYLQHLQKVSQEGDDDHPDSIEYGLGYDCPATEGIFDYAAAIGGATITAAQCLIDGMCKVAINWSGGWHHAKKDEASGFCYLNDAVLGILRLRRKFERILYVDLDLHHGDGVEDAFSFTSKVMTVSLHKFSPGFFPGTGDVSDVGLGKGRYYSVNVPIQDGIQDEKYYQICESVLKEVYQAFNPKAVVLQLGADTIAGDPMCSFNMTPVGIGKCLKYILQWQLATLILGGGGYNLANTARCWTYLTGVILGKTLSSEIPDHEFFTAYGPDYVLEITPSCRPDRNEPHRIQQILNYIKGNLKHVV
Structure (SMILES),IC50 (Full length Human HDAC6) [nM],Selectivity (6 v 8) (Full length Human HDAC6),IC50 (Full length Human HDAC8) [nM]
"O=C(NO)c1cc(F)c2c(c1)CCN(C1CC3(CCCCN3C3CC3)C1)C2 (stereo not drawn) [Compound 353, 2-(5-cyclopropyl-5-azaspiro[3.5]nonan-2-yl)-8-fluoro-3,4-dihydro-1H-isoquinoline-6-carbohydroxamic acid]",1 to 100,IV (IV: >100-1000),10000 to 100000
CC[C@@H]1CCCN1Cc1ccc(C(=O)NO)cc1F [Compound 48],1 to 100,–,1000 to 10000
"CC[C@H]1Cc2c(F)cc(C(=O)NO)cc2CN1C1CC(C)(C)C1 (single isomer, unassigned) [Compound 593]",100 to 1000,IV (IV: >100-1000),10000 to 100000
"CN1CC[C@]2(CC[C@H]2N2CCc3cc(C(=O)NO)cc(F)c3C2)C1 (single isomer, unassigned) [Compound 332]",100 to 1000,III (III: >10-100),1000 to 10000
"CC[C@H]1Cc2c(F)cc(C(=O)NO)cc2CN1CC1C2CC1CN(C)C2 (single isomer, unassigned) [Compound 531]",1 to 100,V (V: >1000),> 100000
O=C(NO)c1ccc2c(c1)CN1CCC[C@H]21 [Compound 164],1000 to 10000,II (II: >1-10),1000 to 10000
"O=C(NO)c1cc(F)c2c(c1)CCN([C@@H]1CCOC3(C1)CN(C1CC1)C3)C2 (single isomer, unassigned) [Compound 449]",1000 to 10000,III (III: >10-100),10000 to 100000
O=C(NO)c1cc(F)c2c(c1)CN1CCCC[C@@H]1C2 [Compound 145],1 to 100,IV (IV: >100-1000),10000 to 100000
"CC[C@H]1Cc2c(F)cc(C(=O)NO)cc2CN1CC12CC(NC)(C1)C2 (single isomer, unassigned) [Compound 523]",1 to 100,IV (IV: >100-1000),10000 to 100000
O=C(NO)c1cc(F)c2c(c1)CCN(CC13CC4CC(CC(C4)N1)C3)C2 [Compound 176],1 to 100,V (V: >1000),10000 to 100000
"CN1CC[C@@H](N2CCc3cc(C(=O)NO)cc(F)c3C2)CC12CCC2 (single isomer, unassigned) [Compound 438]",1 to 100,IV (IV: >100-1000),1000 to 10000
"O=C(NO)c1cc(F)c2c(c1)CCN([C@H]1CC[C@]13CCOC3)C2 (single isomer, unassigned) [Compound 316]",1 to 100,V (V: >1000),10000 to 100000
"O=C(NO)c1cc(F)c2c(c1)CCN(C1CCC13CCC3)C2 (stereo not drawn) [Compound 299, 8-fluoro-2-spiro[3.3]heptan-3-yl-3,4-dihydro-1H-isoquinoline-6-carbohydroxamic acid]",1 to 100,IV (IV: >100-1000),10000 to 100000
"O=C(NO)c1ccc2c(c1)C[C@H]1COCC(=O)N1C2 (single isomer, unassigned) [Compound 134]",1 to 100,–,1000 to 10000
"O=C(NO)c1cc(F)c2c(c1)CCN(C1CC3(CCCO3)C1)C2 (single isomer, unassigned) [Compound 190, 8-fluoro-N-hydroxy-2-(5-oxaspiro[3.4]octan-2-yl)-1,2,3,4-tetrahydroisoquinoline-6-carboxamide]",1 to 100,IV (IV: >100-1000),1000 to 10000
O=C(NO)c1ccc2c(c1)CN1CCCC[C@H]1C2 [Compound 144],100 to 1000,III (III: >10-100),10000 to 100000
"CC(=O)N1CC2(C[C@@H](N3CCc4cc(C(=O)NO)cc(F)c4C3)CCO2)C1 (single isomer, unassigned) [Compound 454]",1 to 100,IV (IV: >100-1000),10000 to 100000

Structure (SMILES),IC50 (Full length Human HDAC6) [nM],Selectivity (6 v 8) (Full length Human HDAC6),IC50 (Full length Human HDAC8) [nM]
"O=C(NO)c1cc(F)c2c(c1)CCN(C1CC3(CCNCC3)C1)C2 [Compound 197, 2-(7-azaspiro[3.5]nonan-2-yl)-8-fluoro-3,4-dihydro-1H-isoquinoline-6-carbohydroxamic acid]",1 to 100,IV (IV: >100-1000),10000 to 100000
O=C(NO)c1cc(F)c2c(c1)CCN1CCC[C@H]21 [Compound 80],100 to 1000,III (III: >10-100),1000 to 10000
"CC[C@@H]1Cc2c(F)cc(C(=O)NO)cc2CN1CC1CC2CCC(C1)N2C (single isomer, unassigned) [Compound 571]",100 to 1000,III (III: >10-100),1000 to 10000
"CC[C@@H]1Cc2c(F)cc(C(=O)NO)cc2CN1CC1CC2(CCCCC2)C1 (single isomer, unassigned) [Compound 521]",1 to 100,III (III: >10-100),100 to 1000
"CC[C@H]1Cc2c(F)cc(C(=O)NO)cc2CN1C[C@]12CN[C@H](CO1)C2 (single isomer, unassigned) [Compound 549]",1 to 100,IV (IV: >100-1000),10000 to 100000
O=C(NO)c1cc(F)c(CN2C3CCC2CC(=NO)C3)cc1F [Compound 54],1 to 100,III (III: >10-100),100 to 1000
CC[C@H]1CCCN1Cc1ccc(C(=O)NO)cc1F [Compound 49],100 to 1000,–,1000 to 10000
"O=C(NO)c1cc(F)c2c(c1)CCN(C1CCOC3(CCC3)C1)C2 (single isomer, unassigned) [Compound 446]",1 to 100,V (V: >1000),10000 to 100000
"CC[C@H]1Cc2c(F)cc(C(=O)NO)cc2CN1CC1CC2CCC(C1)N2C (single isomer, unassigned) [Compound 570]",1 to 100,V (V: >1000),10000 to 100000
"O=C(NO)c1cc(F)c2c(c1)CCN([C@@H]1CC[C@]13CCOC3)C2 (single isomer, unassigned) [Compound 318]",1 to 100,V (V: >1000),10000 to 100000
"CC[C@@H]1Cc2c(F)cc(C(=O)NO)cc2CN1C1CC2(CCN(C)CC2)C1 (single isomer, unassigned) [Compound 594]",1 to 100,V (V: >1000),> 100000
"CC[C@H]1Cc2c(F)cc(C(=O)NO)cc2CN1C1CC2(CCOCC2)C1 (single isomer, unassigned) [Compound 591]",1 to 100,IV (IV: >100-1000),10000 to 100000
CC1(C)C[C@H]2Cc3c(F)cc(C(=O)NO)cc3CN2C1 [Compound 128],100 to 1000,III (III: >10-100),1000 to 10000
"CC[C@@H]1Cc2c(F)cc(C(=O)NO)cc2CN1C1CCC1 (single isomer, unassigned) [Compound 596]",1 to 100,IV (IV: >100-1000),10000 to 100000
"O=C(NO)c1cc(F)c2c(c1)CCN(C1CCC13COC3)C2 (stereo not drawn) [Compound 300, 8-fluoro-2-(2-oxaspiro[3.3]heptan-7-yl)-3,4-dihydro-1H-isoquinoline-6-carbohydroxamic acid]",1 to 100,IV (IV: >100-1000),1000 to 10000
"CC[C@@H]1Cc2c(F)cc(C(=O)NO)cc2CN1C1CC2(CCOCC2)C1 (single isomer, unassigned) [Compound 590]",100 to 1000,III (III: >10-100),10000 to 100000
